# Structures can show the parent of a compound that is named as a salt.
# Key:
# [1] = Solubility of Atrasentan Hydrochloride Crystalline Forms in 1,4-dioxane; format: physicochemical; conditions: 1,4-dioxane at 25° C. (n=3)
# Description: The solubility (in mg/mL) of Atrasentan Hydrochloride Crystalline Forms 1, 2 and 3 in 1,4-dioxane at 25° C.
# [2] = Conversion of crystalline forms of atrasentan hydrochloride to Form 2 in representative solvents at 25° C.; format: physicochemical; parameters: key: 1, 2 and 3 mean Atrasentan Hydrochloride Crystalline Forms 1, 2 and 3, respectively.; 1, 2 and 3 mean Atrasentan Hydrochloride Crystalline Forms 1, 2 and 3, respectively.; 1, 2 and 3 mean Atrasentan Hydrochloride Crystalline Forms 1, 2 and 3, respectively
# Description: Examples of representative solvents that are useful for converting a particular crystalline form of atrasentan hydrochloride to Atrasentan Hydrochloride Crystalline Form 2 having substantial crystalline purity at 25° C. are shown in TABLE 2.
compound,measurement,setting,value
"CCCCN(CCCC)C(=O)CN1C[C@H](c2ccc3c(c2)OCO3)[C@@H](C(=O)O)[C@@H]1c1ccc(OC)cc1 [Form 3, (2R,3R,4S)-(+)-2-(4-methoxyphenyl)-4-(1,3-benzodioxol-5-yl)-1-(N,N-di(n-butyl)aminocarbonylmethyl)pyrrolidine-3-carboxylic acid]",solubility,[1],16.53 ± 0.22 mg/mL
"CCCCN(CCCC)C(=O)CN1C[C@H](c2ccc3c(c2)OCO3)[C@@H](C(=O)O)[C@@H]1c1ccc(OC)cc1 [atrasentan hydrochloride, (2R,3R,4S)-(+)-2-(4-methoxyphenyl)-4-(1,3-benzodioxol-5-yl)-1-(N,N-di(n-butyl)aminocarbonylmethyl)pyrrolidine-3-carboxylic acid]",crystalline form present,"[2]; 0.1M HCl, week 1, 25° C.",1
same,crystalline form present,"[2]; 0.1M HCl, week 2, 25° C.",1
same,crystalline form present,"[2]; 0.1M HCl, week 4, 25° C.",1
same,crystalline form present,"[2]; 0.1M HCl, week 9, 25° C.",2
same,crystalline form present,"[2]; 0.1M HCl, week 16, 25° C.",2
same,crystalline form present,"[2]; IPA (isopropyl alcohol), week 1, 25° C.",1
same,crystalline form present,"[2]; IPA (isopropyl alcohol), week 2, 25° C.",1
same,crystalline form present,"[2]; IPA (isopropyl alcohol), week 4, 25° C.",2
same,crystalline form present,"[2]; IPA (isopropyl alcohol), week 9, 25° C.",2
same,crystalline form present,"[2]; IPA (isopropyl alcohol), week 16, 25° C.",2
same,crystalline form present,"[2]; PEG 400 (polyethylene glycol), week 1, 25° C.",1
same,crystalline form present,"[2]; PEG 400 (polyethylene glycol), week 2, 25° C.",1
same,crystalline form present,"[2]; PEG 400 (polyethylene glycol), week 4, 25° C.",1
same,crystalline form present,"[2]; PEG 400 (polyethylene glycol), week 9, 25° C.",1
same,crystalline form present,"[2]; PEG 400 (polyethylene glycol), week 16, 25° C.",2
same,crystalline form present,"[2]; acetone, week 1, 25° C.",2
same,crystalline form present,"[2]; acetone, week 2, 25° C.",2
same,crystalline form present,"[2]; acetone, week 4, 25° C.",2
same,crystalline form present,"[2]; acetone, week 9, 25° C.",2
same,crystalline form present,"[2]; acetone, week 16, 25° C.",2
same,crystalline form present,"[2]; ethanol, week 1, 25° C.",2
same,crystalline form present,"[2]; ethanol, week 2, 25° C.",2
same,crystalline form present,"[2]; ethanol, week 4, 25° C.",2
same,crystalline form present,"[2]; ethanol, week 9, 25° C.",2
same,crystalline form present,"[2]; ethanol, week 16, 25° C.",2
same,crystalline form present,"[2]; ethyl acetate, week 1, 25° C.",1
same,crystalline form present,"[2]; ethyl acetate, week 2, 25° C.",1
same,crystalline form present,"[2]; ethyl acetate, week 4, 25° C.",1
same,crystalline form present,"[2]; ethyl acetate, week 9, 25° C.",2
same,crystalline form present,"[2]; ethyl acetate, week 16, 25° C.",2
same,crystalline form present,"[2]; nitromethane, week 1, 25° C.",3
same,crystalline form present,"[2]; nitromethane, week 2, 25° C.",3
same,crystalline form present,"[2]; nitromethane, week 4, 25° C.",3
same,crystalline form present,"[2]; nitromethane, week 9, 25° C.",3
same,crystalline form present,"[2]; nitromethane, week 16, 25° C.",2

# Reference: US20060063825A1, “Crystalline form of a drug” (priority 2004, published 2006)
